In publication PMC6843736 (Molecular Pain, 2019):
pIC50: −log10 of the molar value. Values joined by “and” are separate entries in the source; they are usually repeats but may differ in a detail not shown here. Identical values can stand only once.

Experiments:
mice with TIC injury [1] = experiment: Light/dark place preference anxiety test in mouse chronic TIC model; assay type: in vivo; conditions: six weeks; for latency to enter into the lighted chamber: two hours after injection
mice with TIC injury [2] = experiment: Whisker pad mechanical allodynia; assay type: in vivo, mouse; conditions: for allodynia compared to vehicle, ipsilateral side, week 6 / whisker pad mechanical threshold at 2 h post injection, week 3: ELB00824 10 mg/kg i.p., carbamazepine 30 mg/kg i.p.; for time of peak effect: week 3, one-time i.p. dose
human PPARɣ receptor = biological target: T1, human PPARɣ receptor (Homo sapiens, UniProt P37231); experiment: PPARɣ transactivation luciferase reporter assay in HEK 293 T cells; assay type: cell-based
T1 sequence (P37231 1-505): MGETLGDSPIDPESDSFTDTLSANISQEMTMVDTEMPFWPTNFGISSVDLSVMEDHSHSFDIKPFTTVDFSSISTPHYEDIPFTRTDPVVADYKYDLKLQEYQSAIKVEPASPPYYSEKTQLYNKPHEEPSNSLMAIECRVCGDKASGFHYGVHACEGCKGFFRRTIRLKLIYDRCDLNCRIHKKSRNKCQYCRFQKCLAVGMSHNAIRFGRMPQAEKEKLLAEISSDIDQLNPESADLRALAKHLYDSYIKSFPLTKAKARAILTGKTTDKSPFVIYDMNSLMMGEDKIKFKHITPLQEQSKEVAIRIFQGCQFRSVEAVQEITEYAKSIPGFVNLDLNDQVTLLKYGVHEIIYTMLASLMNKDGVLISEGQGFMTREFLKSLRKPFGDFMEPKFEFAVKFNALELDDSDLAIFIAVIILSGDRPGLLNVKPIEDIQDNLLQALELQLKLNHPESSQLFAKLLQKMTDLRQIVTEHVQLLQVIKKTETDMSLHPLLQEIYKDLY

mice with TIC injury [3] = experiment: Zero maze anxiety test in mouse chronic TIC model; assay type: in vivo; conditions: six weeks, 2 h post treatment; for time spent in the closed area of the maze: ELB00824 10 mg/kg, carbamazepine 30 mg/kg
rats = experiment: Observation of neurobehavioral adverse effects after single treatment in rats; assay type: in vivo, rat; conditions: doses of up to 1000 mg/kg i.p. or p.o., one week observation
[4] = system: rats with trigeminal chronic constriction injury (CCI); experiment: Whisker pad mechanical allodynia; assay type: in vivo, rat; conditions: for attenuation of mechanical allodynia: doses as high as 1000 mg/kg
Sprague-Dawley rats = experiment: Preliminary 14-day repeat dose toxicity study in rats; assay type: in vivo, rat
hERG potassium channel = hERG potassium channel (Homo sapiens, UniProt Q12809); experiment: In vitro cardiovascular toxicity study; assay type: biochemical
hERG potassium channel, sequence (Q12809 whole entry): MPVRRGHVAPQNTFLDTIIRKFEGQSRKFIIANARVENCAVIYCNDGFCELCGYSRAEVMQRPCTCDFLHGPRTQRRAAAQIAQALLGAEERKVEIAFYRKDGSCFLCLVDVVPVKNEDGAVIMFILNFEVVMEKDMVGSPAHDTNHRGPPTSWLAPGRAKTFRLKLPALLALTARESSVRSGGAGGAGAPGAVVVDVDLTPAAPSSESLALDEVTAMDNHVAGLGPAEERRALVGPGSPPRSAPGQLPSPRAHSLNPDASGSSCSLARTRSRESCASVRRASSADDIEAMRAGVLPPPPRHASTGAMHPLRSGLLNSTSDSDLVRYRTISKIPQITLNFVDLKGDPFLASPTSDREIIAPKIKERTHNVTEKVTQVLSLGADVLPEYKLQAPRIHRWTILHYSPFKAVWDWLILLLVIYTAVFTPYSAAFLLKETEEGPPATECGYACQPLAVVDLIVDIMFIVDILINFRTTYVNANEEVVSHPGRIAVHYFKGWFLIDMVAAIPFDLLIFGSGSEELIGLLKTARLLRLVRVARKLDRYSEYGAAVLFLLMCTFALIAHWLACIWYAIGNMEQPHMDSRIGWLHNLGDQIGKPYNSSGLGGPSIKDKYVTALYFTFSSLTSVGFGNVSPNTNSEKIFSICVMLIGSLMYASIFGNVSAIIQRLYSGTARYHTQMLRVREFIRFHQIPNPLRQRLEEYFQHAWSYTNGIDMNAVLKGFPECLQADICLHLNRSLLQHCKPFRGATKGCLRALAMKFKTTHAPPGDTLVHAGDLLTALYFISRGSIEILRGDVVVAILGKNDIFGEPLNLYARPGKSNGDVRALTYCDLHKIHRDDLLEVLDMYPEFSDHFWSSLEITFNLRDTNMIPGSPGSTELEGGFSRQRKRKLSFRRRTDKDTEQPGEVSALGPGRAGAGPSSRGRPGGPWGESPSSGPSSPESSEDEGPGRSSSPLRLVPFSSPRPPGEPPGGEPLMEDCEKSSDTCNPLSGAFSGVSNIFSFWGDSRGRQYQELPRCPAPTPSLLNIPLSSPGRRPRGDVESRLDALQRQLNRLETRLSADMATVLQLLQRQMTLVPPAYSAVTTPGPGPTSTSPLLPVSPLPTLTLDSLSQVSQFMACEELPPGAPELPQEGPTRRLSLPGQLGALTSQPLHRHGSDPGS

[5] = Pharmacokinetic/toxicokinetic study and BBB permeability in rats; assay type: in vivo, rat
[6] = system: mouse bone marrow erythroblast; experiment: Genotoxicity study, micronucleus test; assay type: in vivo; conditions: up to highest concentration 500 mg/kg, intraperitoneal
[7] = Sprague-Dawley, rat, plasma, po, 10 mg/kg
[8] = from AUC in μM·h, rat, 10 mg/kg i.p.
[9] = from AUC in μM·h, rat, 10 mg/kg i.p., 10 mg/kg
[10] = from AUC in μg·h/mL, rat, 10 mg/kg i.p.
[11] = from Cmax in μM, rat, 10 mg/kg i.p.
[12] = from Cmax in μM, rat, 10 mg/kg i.p., 10 mg/kg
[13] = from Cmax in μg/mL, rat, 10 mg/kg i.p.
[14] = male, Sprague-Dawley, rat, plasma, ip, 10 mg/kg

CCc1ccc(CC/C=C/c2ccc3c(c2)C(=O)CC3)cc1 [ELB00824, (E)-6–(4-(4-ethylphenyl)but-1-en-1-yl)-2,3-dihydro-1H-inden-1-one]
occupancy time and number of times that rearing occurred (mice with TIC injury [1]; compared with carbamazepine): less robust anti-anxiety behaviors
latency to enter into the lighted chamber (mice with TIC injury [1]): 10 ± 12 s
allodynia compared to vehicle, contralateral side, week 6 (mice with TIC injury [2]; 10 mg/kg i.p.): significantly improved allodynia
mechanical threshold relative to carbamazepine, week 3 (mice with TIC injury [2]; 2 h post injection): 4.3 fold
allodynia compared to vehicle, ipsilateral side, week 6 (mice with TIC injury [2]): significantly improved allodynia
whisker pad mechanical threshold at 2 h post injection, week 3 (mice with TIC injury [2]): 6 ± 0.0 g
time of peak effect (mice with TIC injury [2]): 2 h
maximal activities (% control), PPARɣ activation (human PPARɣ receptor): 45 ± 4%
latency to move to the closed area (mice with TIC injury [3]): 11.6 ± 3.9 s
time spent in the closed area of the maze (mice with TIC injury [3]): 103 ± 21 s
observable neurobehavioral adverse effects (rats): not discernable
mechanical threshold at 1.5 h ([4]; 2.5 mg topical (7% cream, 50 mg/cm^2)): 8.9 ± 1.5 g
mechanical threshold at 1.5 h ([4]; 5 mg topical (7% cream, 100 mg/cm^2)): 19.7 ± 3.1 g
mechanical threshold at 3 h after treatment ([4]; 10 mg/kg i.p.): 3.5 ± 0.9 g
ipsilateral whisker pad mechanical threshold ([4]; 10 mg/kg i.p., 1 h, 5-14 days post-CCI): 11.4 ± 2.2 g
ipsilateral whisker pad mechanical threshold (peak) ([4]; 10 mg/kg i.p., 2 h, ELB00824 only): 14.9 ± 2.5 g
mechanical threshold at 3 h after treatment ([4]; 10 mg/kg p.o.): 2.8 ± 0.5 g
dose dependence of mechanical threshold at peak time ([4]; 2 h after treatment (gabapentin 1 h), i.p. or p.o.): dose-dependently increased the mechanical threshold
mechanical threshold 1 h after injection ([4]; ELB00824 3 mg/kg i.p. and/or gabapentin 0.3 mg/kg i.p., one-time dose): 2.5 ± 0.3 g
onset of symptom relief ([4]; higher dose topical): 0.5 h
minimal dose required to restore mechanical threshold to baseline ([4]; i.p. or p.o.): 10 mg/kg
peak time of mechanical threshold ([4]; i.p. or p.o. treatment): 2 h
effective dose decreasing neuropathic hypersensitivity ([4]; rodent trigeminal nerve injury models, pioglitazone i.p.): 10 mg/kg
onset of symptom relief ([4]; systematic treatment, either i.p. or p.o., 10 mg/kg): 1 h
mechanical threshold at 3 h after treatment ([4]; topical treatment): 8.9 ± 1.1 g
hematological, blood coagulation and serum biochemistry parameters (55 parameters) compared with controls (Sprague-Dawley rats; day 15, male and female): No significant changes
hemoglobin and hematocrit values vs control (Sprague-Dawley rats; male 450 mg/kg group, day 15): slightly lower hemoglobin and hematocrit values
pIC50 (hERG potassium channel): < 4.52
Tmax ([5]; Sprague-Dawley, rat, brain, po, 10 mg/kg): 3 h
AUC(0-t) [5, 7]: 3030 ng·h/mL
Cmax [5, 7]: 350 ng/mL
Tmax [5, 7]: 1 h
Plasma AUC0–24h ratio ELB00824/Pioglitazone [5, 8]: 0.3
Plasma AUC0–24h ratio ELB00824/Rosiglitazone [5, 8]: 0.4
Brain AUC0–24h ratio ELB00824/Pioglitazone [5, 9]: 15
Brain AUC0–24h ratio ELB00824/Rosiglitazone [5, 9]: 21
Brain AUC0–24h ratio ELB00824/Pioglitazone [5, 10]: 11
Brain AUC0–24h ratio ELB00824/Rosiglitazone [5, 10]: 17
Plasma AUC0–24h ratio ELB00824/Pioglitazone [5, 10]: 0.2
Plasma AUC0–24h ratio ELB00824/Rosiglitazone [5, 10]: 0.3
Plasma Cmax ratio ELB00824/Pioglitazone [5, 11]: 0.2
Plasma Cmax ratio ELB00824/Rosiglitazone [5, 11]: 0.3
Brain Cmax ratio ELB00824/Pioglitazone [5, 12]: 5.4
Brain Cmax ratio ELB00824/Rosiglitazone [5, 12]: 6.7
Brain Cmax ratio ELB00824/Pioglitazone [5, 13]: 4.0
Brain Cmax ratio ELB00824/Rosiglitazone [5, 13]: 5.5
Plasma Cmax ratio ELB00824/Pioglitazone [5, 13]: 0.1
Plasma Cmax ratio ELB00824/Rosiglitazone [5, 13]: 0.2
concentration at 1 h ([5]; male, Sprague-Dawley, rat, brain, po, 10 mg/kg): 1160 ng/mL and 4.01 µM
concentration at 1 h ([5]; male, Sprague-Dawley, rat, brain, po, 30 mg/kg): 4110 ng/mL and 14.2 µM
concentration at 1 h ([5]; male, Sprague-Dawley, rat, brain, po, 120 mg/kg): 7570 ng/mL and 26.1 µM
concentration at 1 h ([5]; male, Sprague-Dawley, rat, brain, po, 450 mg/kg): 11000 ng/mL and 38 µM
Kp ([5]; male, Sprague-Dawley, rat, brain/plasma, ip, 10 mg/kg): 5.13
AUC(0-t) [5, 14]: 6550 ng·h/mL and 22.6 µM·h
Cmax [5, 14]: 1120 ng/mL and 3.85 µM
Tmax [5, 14]: 0.5 h
concentration at 1 h ([5]; male, Sprague-Dawley, rat, plasma, po, 10 mg/kg): 270 ng/mL and 940 nM
concentration at 1 h ([5]; male, Sprague-Dawley, rat, plasma, po, 30 mg/kg): 820 ng/mL and 2.81 µM
concentration at 1 h ([5]; male, Sprague-Dawley, rat, plasma, po, 120 mg/kg): 1510 ng/mL and 5.2 µM
concentration at 1 h ([5]; male, Sprague-Dawley, rat, plasma, po, 450 mg/kg): 2200 ng/mL and 7.57 µM
Brain AUC0–24h ([5]; rat brain, 10 mg/kg p.o.): 10370 ng·h/mL
Brain Cmax ([5]; rat brain, 10 mg/kg p.o.): 1820 ng/mL
plasma Cmax and AUC0–24h relative to those of pioglitazone or rosiglitazone ([5]; rat plasma, 10 mg/kg i.p.): less than 0.3 fold
relative brain bioavailability (AUC0–24h) of oral versus i.p. injection ([5]; rat, 10 mg/kg): 31%
relative plasma bioavailability (AUC0–24h) of oral versus i.p. injection ([5]; rat, 10 mg/kg): 46%
chromosome damage in mouse bone marrow erythroblast [6]: did not induce a significant increase of chromosome damage

NC(=O)N1c2ccccc2C=Cc2ccccc21 [carbamazepine, reference compound]
latency to enter into the lighted chamber (mice with TIC injury [1]): decreased latency
allodynia compared to vehicle, ipsilateral side, week 6 (mice with TIC injury [2]): significantly improved allodynia
whisker pad mechanical threshold at 2 h post injection, week 3 (mice with TIC injury [2]): 1.4 ± 0.2 g
time of peak effect (mice with TIC injury [2]): 2 h
latency to move to the closed area (mice with TIC injury [3]): significantly increased latency
zone transitions (mice with TIC injury [3]; vs vehicle): significantly more
time spent in the closed area of the maze (mice with TIC injury [3]): did not show significant differences

CC(=O)Nc1ccc(O)cc1 [acetaminophen, reference compound]
attenuation of mechanical allodynia [4]: neither acetaminophen nor ibuprofen attenuated mechanical allodynia

CC(C)Cc1ccc(C(C)C(=O)O)cc1 (stereo not drawn) [ibuprofen, reference compound]
attenuation of mechanical allodynia [4]: neither acetaminophen nor ibuprofen attenuated mechanical allodynia
